According to ChEMBL document CHEMBL1201862, “PubChem BioAssay data set” (2004):
One block for each compound: values may come before it. The source made the active and inactive calls.

Experiments:
[1] = cytotoxicity in HEK-293T cells, dose response, cytotoxicity control for BCR NF-kB inhibitor project, luminescence, B-cell screen hits (AID 489021); assay type: functional, cell-based;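 further: HEK-293T cells carrying an NF-kB luciferase reporter; cells exposed to compound for about 14 hours before viability readout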
[2] = target: Glyceraldehyde-3-phosphate dehydrogenase (Homo sapiens, UniProt P04406)
Glyceraldehyde-3-phosphate dehydrogenase, sequence (P04406 whole entry): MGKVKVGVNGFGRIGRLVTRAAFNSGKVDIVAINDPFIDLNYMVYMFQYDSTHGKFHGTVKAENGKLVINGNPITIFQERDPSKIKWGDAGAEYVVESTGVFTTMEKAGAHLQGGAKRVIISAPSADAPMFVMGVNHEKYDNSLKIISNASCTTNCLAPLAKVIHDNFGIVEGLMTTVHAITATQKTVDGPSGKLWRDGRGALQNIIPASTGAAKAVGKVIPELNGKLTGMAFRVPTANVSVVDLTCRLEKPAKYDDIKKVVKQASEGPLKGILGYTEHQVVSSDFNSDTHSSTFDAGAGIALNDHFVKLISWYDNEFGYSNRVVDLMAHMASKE

[3] = target: T1, Alkaline phosphatase, tissue-nonspecific isozyme (Homo sapiens, UniProt P05186); assay: human TNAP enzyme inhibitors, SAR follow-up, biochemical, luminescent, dose response (AID 1056)
T1 sequence (P05186 whole entry): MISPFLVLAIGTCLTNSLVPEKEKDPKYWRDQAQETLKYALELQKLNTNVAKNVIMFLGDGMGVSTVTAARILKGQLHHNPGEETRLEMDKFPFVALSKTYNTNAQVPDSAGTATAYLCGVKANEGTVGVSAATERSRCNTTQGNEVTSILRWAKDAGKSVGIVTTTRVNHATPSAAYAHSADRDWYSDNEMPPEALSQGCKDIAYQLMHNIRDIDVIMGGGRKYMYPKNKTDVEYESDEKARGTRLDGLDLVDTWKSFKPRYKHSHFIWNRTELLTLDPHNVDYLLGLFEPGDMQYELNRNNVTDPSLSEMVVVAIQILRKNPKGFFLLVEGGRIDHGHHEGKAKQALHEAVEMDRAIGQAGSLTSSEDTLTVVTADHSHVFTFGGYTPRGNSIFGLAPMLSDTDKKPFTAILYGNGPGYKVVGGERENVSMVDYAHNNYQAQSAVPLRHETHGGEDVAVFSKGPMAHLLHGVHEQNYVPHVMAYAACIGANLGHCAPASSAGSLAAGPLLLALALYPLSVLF

[4] = system: Vero; assay: Vero E6 cell cytotoxicity, SAR follow-up, cytotoxicity control for West Nile virus antiviral project, synthesized analogs (AID 2244); assay type: functional; conditions: Chlorocebus sabaeus
[5] = system: HEK293; assay: cells; conditions: Homo sapiens
[6] = target: T2, fMet-Leu-Phe receptor (Homo sapiens, UniProt P21462); assay: FPR ligands, dose response (AID 519); assay type: functional
T2 sequence (P21462 whole entry): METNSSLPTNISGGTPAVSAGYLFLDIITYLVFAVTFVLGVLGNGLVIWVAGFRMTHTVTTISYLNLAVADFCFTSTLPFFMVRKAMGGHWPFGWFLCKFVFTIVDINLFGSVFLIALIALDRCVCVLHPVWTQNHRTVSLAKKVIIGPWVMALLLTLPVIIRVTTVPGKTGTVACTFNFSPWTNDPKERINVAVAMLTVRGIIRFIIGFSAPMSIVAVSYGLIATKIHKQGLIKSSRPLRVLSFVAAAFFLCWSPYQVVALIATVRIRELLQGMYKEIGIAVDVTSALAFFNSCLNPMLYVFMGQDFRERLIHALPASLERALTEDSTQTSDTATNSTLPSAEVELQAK

[7] = NIH-3T3 fibroblast cytotoxicity, dose response, cytotoxicity control, cell-based, fluorescence, Alamar Blue, secondary assay (AID 2327); assay type: functional;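 further: NIH-3T3 mouse fibroblasts cultured with fluconazole at 8 µg/mL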
[8] = system: HEK293; assay: cells; conditions: Homo sapiens; remark: listed apart in the source
[9] = target: T3, RNA-binding protein pos-1 (Caenorhabditis elegans, UniProt G5EF15); assay: inhibitors of POS-1/mex-3 RNA binding, dose response, biochemical, fluorescence polarization (AID 1964);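 further: purified POS-1 fused to maltose binding protein made in E. coli; potency of compounds blocking POS-1 binding to fluorescent RNA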
T3 sequence (G5EF15 whole entry): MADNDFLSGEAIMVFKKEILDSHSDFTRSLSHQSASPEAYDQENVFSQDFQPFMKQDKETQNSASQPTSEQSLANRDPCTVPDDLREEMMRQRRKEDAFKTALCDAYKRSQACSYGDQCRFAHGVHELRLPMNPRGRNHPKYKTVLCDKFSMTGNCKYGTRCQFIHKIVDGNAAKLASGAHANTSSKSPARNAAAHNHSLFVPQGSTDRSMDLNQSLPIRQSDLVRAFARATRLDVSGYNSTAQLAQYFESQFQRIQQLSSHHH

[10] = C. albicans growth with fluconazole, confirmation, fluorescence, retest (AID 2467); assay type: functional, cell-based
[11] = target: T4, Zinc finger protein mex-5 (Caenorhabditis elegans, UniProt Q9XUB2); assay: MEX-5/TCR-2 RNA interaction inhibitors, dose response, biochemical, C. elegans, fluorescence polarization (AID 1960)
T4 sequence (Q9XUB2 whole entry): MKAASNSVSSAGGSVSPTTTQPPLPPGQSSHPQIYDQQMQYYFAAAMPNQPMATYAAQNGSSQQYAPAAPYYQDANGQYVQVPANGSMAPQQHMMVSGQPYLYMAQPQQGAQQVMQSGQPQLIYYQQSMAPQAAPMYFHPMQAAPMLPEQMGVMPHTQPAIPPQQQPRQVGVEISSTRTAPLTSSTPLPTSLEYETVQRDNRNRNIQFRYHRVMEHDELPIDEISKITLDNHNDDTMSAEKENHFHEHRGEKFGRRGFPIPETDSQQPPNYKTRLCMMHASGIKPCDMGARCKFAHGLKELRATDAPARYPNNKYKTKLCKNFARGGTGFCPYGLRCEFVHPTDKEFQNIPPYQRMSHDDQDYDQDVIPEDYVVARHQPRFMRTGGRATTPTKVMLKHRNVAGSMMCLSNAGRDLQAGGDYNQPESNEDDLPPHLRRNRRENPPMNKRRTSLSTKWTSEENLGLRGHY

[12] = target: Protein Wnt-3a (Mus musculus, UniProt P27467); assay: Wnt3a-driven reporter signaling inhibition, dose response, selectivity assay for Gli-SUFU antagonist project, Wnt-LIGHT cells, luminescence (AID 651570); assay type: functional; conditions: read-out: IC50_Mean;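 further: Wnt-LIGHT reporter cells stimulated with conditioned medium from Wnt3a-producing cells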
Protein Wnt-3a, sequence (P27467 whole entry): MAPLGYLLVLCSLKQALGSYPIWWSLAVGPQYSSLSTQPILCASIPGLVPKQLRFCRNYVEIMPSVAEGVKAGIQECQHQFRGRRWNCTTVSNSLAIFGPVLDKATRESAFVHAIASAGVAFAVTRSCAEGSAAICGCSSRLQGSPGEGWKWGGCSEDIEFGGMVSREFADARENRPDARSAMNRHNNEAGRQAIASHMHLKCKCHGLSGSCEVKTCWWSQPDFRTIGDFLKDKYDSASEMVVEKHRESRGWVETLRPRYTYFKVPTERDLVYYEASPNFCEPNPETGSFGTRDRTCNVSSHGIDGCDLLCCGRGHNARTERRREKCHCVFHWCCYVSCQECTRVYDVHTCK

[13] = target: Cytochrome P450 2D6 (Homo sapiens, UniProt P10635);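 further: CYP2D6 member of a cytochrome P450 panel assay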
Cytochrome P450 2D6, sequence (P10635 whole entry): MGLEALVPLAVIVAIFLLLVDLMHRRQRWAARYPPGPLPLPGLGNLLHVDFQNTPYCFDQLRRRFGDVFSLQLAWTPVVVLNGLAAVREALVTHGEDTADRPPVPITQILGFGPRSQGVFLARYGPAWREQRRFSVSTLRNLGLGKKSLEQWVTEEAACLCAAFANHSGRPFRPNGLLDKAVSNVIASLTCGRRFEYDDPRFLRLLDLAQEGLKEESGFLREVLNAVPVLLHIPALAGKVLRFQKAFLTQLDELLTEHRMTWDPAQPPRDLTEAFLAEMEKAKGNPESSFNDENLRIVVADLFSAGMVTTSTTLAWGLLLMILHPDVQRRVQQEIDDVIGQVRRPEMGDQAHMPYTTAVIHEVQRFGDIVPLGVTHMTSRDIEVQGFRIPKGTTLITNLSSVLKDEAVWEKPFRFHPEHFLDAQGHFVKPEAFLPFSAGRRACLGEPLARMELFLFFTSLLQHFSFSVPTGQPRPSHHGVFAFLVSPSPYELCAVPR

[14] = target: Cytochrome P450 2C19 (Homo sapiens, UniProt P33261); assay: Cytochrome panel assay with activity outcomes. Panel member name: p450-cyp2c19 Compounds with AC50 equal or less than 10 uM are considered active; assay type: functional; conditions: read-out: AC50
Cytochrome P450 2C19, sequence (P33261 whole entry): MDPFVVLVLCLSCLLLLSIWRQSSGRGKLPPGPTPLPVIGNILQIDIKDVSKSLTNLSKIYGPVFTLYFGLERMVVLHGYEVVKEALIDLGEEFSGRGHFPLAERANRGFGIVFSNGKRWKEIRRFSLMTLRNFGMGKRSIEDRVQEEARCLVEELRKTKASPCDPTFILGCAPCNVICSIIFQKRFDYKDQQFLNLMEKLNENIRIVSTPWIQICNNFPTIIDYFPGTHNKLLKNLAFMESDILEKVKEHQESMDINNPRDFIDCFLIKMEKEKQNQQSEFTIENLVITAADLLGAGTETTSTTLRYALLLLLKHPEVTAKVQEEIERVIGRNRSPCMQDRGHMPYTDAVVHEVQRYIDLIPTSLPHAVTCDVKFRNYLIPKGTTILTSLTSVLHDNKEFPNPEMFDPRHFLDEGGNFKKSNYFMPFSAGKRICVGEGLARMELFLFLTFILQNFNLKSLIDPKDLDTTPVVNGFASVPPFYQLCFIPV

[15] = system: Escherichia coli; assay: microbe, parasite or virus in culture
[16] = target: Cytochrome P450 2C9 (Homo sapiens, UniProt P11712)
Cytochrome P450 2C9, sequence (P11712 whole entry): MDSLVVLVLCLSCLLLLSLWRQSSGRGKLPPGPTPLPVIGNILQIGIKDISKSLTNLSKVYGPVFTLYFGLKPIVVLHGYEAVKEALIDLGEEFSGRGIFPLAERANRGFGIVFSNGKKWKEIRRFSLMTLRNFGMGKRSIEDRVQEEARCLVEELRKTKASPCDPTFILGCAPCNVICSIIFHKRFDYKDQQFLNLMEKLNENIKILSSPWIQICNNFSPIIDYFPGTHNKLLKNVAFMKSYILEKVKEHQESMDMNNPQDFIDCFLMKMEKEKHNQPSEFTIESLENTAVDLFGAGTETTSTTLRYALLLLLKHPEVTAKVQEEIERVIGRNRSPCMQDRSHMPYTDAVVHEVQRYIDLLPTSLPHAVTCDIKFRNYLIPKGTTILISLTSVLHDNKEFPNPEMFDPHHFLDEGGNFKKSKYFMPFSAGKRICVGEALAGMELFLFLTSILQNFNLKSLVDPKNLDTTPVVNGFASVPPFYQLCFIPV

SMILES: O=C(NCCCN1CCOCC1)c1cc(-c2ccc(Br)cc2)on1
IC50 [1]: > 80 µM (inactive)

IC50 [2]: > 100 µM (not active)
IC50 [3]: > 100 µM (inactive)
SMILES: O=C(O)c1cc(-c2ccccc2O)n[nH]1

SMILES: O=C(CSc1nc2ccccc2c(=O)n1-c1ccc(F)cc1)Nc1ccc2c(c1)OCCO2
CC50 [4]: > 40 µM (active)

SMILES: COc1ccc(-c2nnc(Nc3nc4c(OC)cccc4s3)o2)c(OC)c1
EC50 [5]: > 59.6 µM (inactive)
Ki [6]: > 66.7 µM (inactive)
EC50 [7]: > 150 µM (inconclusive)
EC50 [8]: > 59.6 µM (inactive)
EC50 [9]: > 300 µM (not active)
EC50 [10]: > 38 µM (not active)
EC50 [11]: 61.3 µM (active)

IC50 [12]: 4.21 µM (active)
SMILES: COc1ccc(CNc2cc(C)nc3ncnn23)c(OC)c1

AC50 [13]: inconclusive
AC50 [14]: 31.6 µM (inconclusive)
SMILES: CCCNC(=O)c1cc2c(C(F)(F)F)nn(C)c2s1

SMILES: COc1ccc(N2C(=O)C3C4C=CC(C4)C3C2=O)nn1 (stereo not drawn)
AC50 [15]: 26.5 µM (active)

SMILES: CCCn1c(=N)c(S(=O)(=O)c2ccc(F)cc2)cc2c(=O)n3cccc(C)c3nc21
AC50 [15]: 42.8 µM (active)

AC50 [16]: 7.94 µM (inconclusive)
AC50 [13]: inconclusive
SMILES: O=C(O)c1ccc(/C=N\N=C2c3ccccc3-c3ccccc32)cc1
